This is an account of results in patent publication US20130324412A1, “N-ALKOXYAMIDES OF 6-(SUBSTITUTED PHENYL)-4-AMINOPICOLINATES AND 2-(SUBSTITUTED PHENYL)-6-AMINO-4-PYRIMIDINECARBOXYLATES AND THEIR USE AS SELECTIVE HERBICIDES FOR CROPS” (DOW AGROSCIENCES LLC, priority 2009, published 2013).

Structures are written as SMILES.

Common to all, as to format: in vivo
The test system of test [1] is wild buckwheat (Polygonum convululus). In words: General postemergence herbicidal activity, wild buckwheat. The following applies: post-emergence, 336 h, postemergence, after 14 d, 0 = no injury, 100 = complete kill, read-out: POLCO % Visual Injury; for pest or weed control at 70 g/ha: 70 g ai/ha; for pest or weed control at 140 g/ha: 140 g ai/ha. The procedure:
(§1) Seeds or nutlets of the desired test plant species were planted in Sun Gro MetroMix® 360 planting mixture, which typically has a pH of 6.0 to 6.8 and an organic matter content of about 30 percent, in plastic pots with a surface area of 64 square centimeters (cm^2). When required to ensure good germination and healthy plants, a fungicide treatment and/or other chemical or physical treatment was applied. The plants were grown for 7-21 days (d) in a greenhouse with an approximate 15-hour (h) photoperiod which was maintained at about 23-29° C. during the day and 22-28° C. during the night. Nutrients and water were added on a regular basis and supplemental lighting was provided with overhead metal halide 1000-Watt lamps as necessary. The plants were employed for testing when they reached the first or second true leaf stage.
(§2) A weighed amount, determined by the highest rate to be tested, of each test compound was dissolved in 4 mL of a 97:3 volume per volume (v/v) mixture of acetone and dimethyl sulfoxide (DMSO) to obtain concentrated stock solutions. […] The concentrated stock solutions obtained were diluted with 20 mL of an aqueous mixture containing acetone, water, isopropyl alcohol, DMSO, Atplus 411F crop oil concentrate, and Triton X-155 surfactant in a 48.5:39:10:1.5:1.0:0.02 v/v ratio to obtain spray solutions containing the highest application rates. Additional application rates were obtained by serial dilution of 12 mL of the high rate solution into a solution containing 2 mL of 97:3 v/v mixture of acetone and DMSO and 10 mL of an aqueous mixture containing acetone, water, isopropyl alcohol, DMSO, Atplus 411F crop oil concentrate, and Triton X-155 surfactant in a 48.5:39:10:1.5:1.0:0.02 v/v ratio to obtain ½×, ¼×, ⅛× and 1/16× rates of the high rate. Compound requirements are based upon a 12 mL application volume at a rate of 187 liters per hectare (L/ha). Formulated compounds were applied to the plant material with an overhead Mandel track sprayer equipped with 8002E nozzles calibrated to deliver 187 L/ha over an application area of 0.503 square meters (m^2) at a spray height of 18 inches (43 cm) above the average plant canopy height. Control plants were sprayed in the same manner with the solvent blank.
(§3) The treated plants and control plants were placed in a greenhouse as described above and watered by sub-irrigation to prevent wash-off of the test compounds. After 14 d, the condition of the test plants as compared with that of the untreated plants was determined visually and scored on a scale of 0 to 100 percent where 0 corresponds to no injury and 100 corresponds to complete kill.

The test system of test [2] is velvetleaf (Abutilon theophrasti). In words: General postemergence herbicidal activity, velvetleaf. The following applies: post-emergence, 336 h, postemergence, after 14 d, 0 = no injury, 100 = complete kill, read-out: ABUTH % Visual Injury; for pest or weed control at 70 g/ha: 70 g ai/ha; for pest or weed control at 17.5 g/ha: 17.5 g ai/ha; for pest or weed control at 140 g/ha: 140 g ai/ha; for pest or weed control at 35 g/ha: 35 g ai/ha. The protocol: as §1, §2, §3

A further test concerns corn (Zea mays). In words: General postemergence herbicidal activity, corn. The following applies: post-emergence, 336 h, postemergence, after 14 d, 0 = no injury, 100 = complete kill, read-out: ZEAMX % Visual Injury; for plant injury at 70 g/ha: 70 g ai/ha; for plant injury at 17.5 g/ha: 17.5 g ai/ha; for plant injury at 140 g/ha: 140 g ai/ha; for plant injury at 35 g/ha: 35 g ai/ha. The protocol:
as §1, §2, §3

The test system of test [3] is lambsquarters (Chenopodium album). The test can be described thus: General postemergence herbicidal activity, lambsquarters. The following applies: post-emergence, 336 h, postemergence, after 14 d, 0 = no injury, 100 = complete kill, read-out: CHEAL % Visual Injury; for pest or weed control at 70 g/ha: 70 g ai/ha; for pest or weed control at 17.5 g/ha: 17.5 g ai/ha; for pest or weed control at 140 g/ha: 140 g ai/ha; for pest or weed control at 35 g/ha: 35 g ai/ha. The protocol:
as §1, §2, §3

On to `COc1ccc(CONC(=O)c2nc(-c3ccc(Cl)c(OC)c3F)cc(N)c2Cl)cc1` [Compound 23, 4-Amino-3-chloro-6-(4-chloro-2-fluoro-3-methoxyphenyl)-N-(4-methoxy-benzyloxy)picolinamide], for which the pest or weed control at 70 g/ha in test [1], in test [2] and in test [3] was 100% each time. In the test on corn (Zea mays), the plant injury at 70 g/ha amounted to 15%.
For the compound `COc1c(Cl)ccc(-c2cc(N)c(Cl)c(C(=O)NOCc3ccc(Cl)cc3)n2)c1F` [Compound 15, 4-Amino-3-chloro-6-(4-chloro-2-fluoro-3-methoxyphenyl)-N-(4-chloro-benzyloxy)picolinamide], the pest or weed control at 70 g/ha in test [1], in test [2] and in test [3] was 100% in each case. In the test with corn (Zea mays), the plant injury at 70 g/ha came to 10%.
On to `COc1c(Cl)ccc(-c2cc(N)c(Cl)c(C(=O)NO)n2)c1F` [Compound 57, 4-amino-3-chloro-6-(4-chloro-2-fluoro-3-methoxyphenyl)-N-hydroxypicolinamide], for which the pest or weed control at 17.5 g/ha in test [1] (17.5 g ai/ha) is 95%; in test [2], 90%; in test [3], 95%. In addition, the plant injury at 17.5 g/ha in the test on corn (Zea mays) was determined as 0%.
As for `CC/C=C/CONC(=O)c1nc(-c2ccc(Cl)c(OC)c2F)cc(N)c1Cl` [Compound 45, (E)-4-Amino-3-chloro-6-(4-chloro-2-fluoro-3-methoxyphenyl)-N-(2-pentenyl-oxy)picolinamide], the pest or weed control at 140 g/ha in test [1], in test [2] and in test [3] was 100% throughout. Moreover, in the test on corn (Zea mays), the plant injury at 140 g/ha stood at 30%.
Consider `C=CCON(C)C(=O)c1nc(-c2ccc(Cl)c(OC)c2F)cc(N)c1Cl` [Compound 26, N-(2-Propenyloxy)-4-amino-3-chloro-6-(4-chloro-2-fluoro-3-methoxyphenyl)-N-methylpicolinamide], for which the pest or weed control at 140 g/ha was found to be 95% in test [1], 95% in test [2] and 100% in test [3]. Also, in the test with corn (Zea mays), the plant injury at 140 g/ha worked out at 0%.
On to `COc1c(Cl)ccc(-c2cc(N)c(Cl)c(C(=O)NOc3ccccc3)n2)c1F` [Compound 20, 4-Amino-3-chloro-6-(4-chloro-2-fluoro-3-methoxyphenyl)-N-phenoxypicolinamide], for which the pest or weed control at 70 g/ha in test [1] came out at 100%; in test [2], 100%; in test [3], 95%. In the test on corn (Zea mays), the plant injury at 70 g/ha was 25%.
For the compound `COc1c(Cl)ccc(-c2cc(N)c(Cl)c(C(=O)NOC3CCCO3)n2)c1F` (stereo not drawn) [Compound 17, 4-Amino-3-chloro-6-(4-chloro-2-fluoro-3-methoxyphenyl)-N-(tetrahydrofuran-2-yloxy)picolinamide], the pest or weed control at 70 g/ha in test [1], in test [2] and in test [3] was 100% each time. The plant injury at 70 g/ha in the test on corn (Zea mays) is 10%.
With `COc1c(Cl)ccc(-c2cc(N)c(Cl)c(C(=O)NOCc3ccoc3)n2)c1F` [Compound 43, 4-Amino-3-chloro-6-(4-chloro-2-fluoro-3-methoxyphenyl)-N-(furan-3-yl-methoxy)picolinamide], the values for the pest or weed control at 140 g/ha in test [1], in test [2] and in test [3] were 100%, 95% and 100%, respectively. The plant injury at 140 g/ha with corn (Zea mays) is 30%.
Regarding `COc1c(Cl)ccc(-c2cc(N)c(Cl)c(C(=O)NOCc3ccco3)n2)c1F` [Compound 42, 4-Amino-3-chloro-6-(4-chloro-2-fluoro-3-methoxyphenyl)-N-(furan-2-yl-methoxy)picolinamide], the pest or weed control at 70 g/ha in test [1], in test [2] and in test [3] was 100% each time. Also, the plant injury at 70 g/ha in the test with corn (Zea mays) turned out to be 15%.
Turning to `C=C(C)CONC(=O)c1nc(-c2ccc(Cl)c(OC)c2F)cc(N)c1Cl` [Compound 28, 4-Amino-3-chloro-6-(4-chloro-2-fluoro-3-methoxyphenyl)-N-(2-methyl-2-propenyl-oxy)picolinamide], the pest or weed control at 35 g/ha in test [2] and in test [3] was 100% throughout. The plant injury at 35 g/ha with corn (Zea mays) worked out at 25%.
For the compound `C=CCONC(=O)c1nc(C2CC2)nc(N)c1Cl` [Compound 11, N-(2-Propenyloxy)-6-amino-5-chloro-2-cyclopropylpyrimidine-4-carboxamide], the pest or weed control at 140 g/ha in test [1] is 100%; in test [2] it was 40%; in test [3], 100%. Further, in the test on corn (Zea mays), the plant injury at 140 g/ha was found to be 20%.
For the compound `COC[C@H]1O[C@H](ONC(=O)c2nc(-c3ccc(Cl)c(OC)c3F)cc(N)c2Cl)[C@H](OC)[C@@H](OC)[C@@H]1OC` [Compound 16, 4-Amino-3-chloro-6-(4-chloro-2-fluoro-3-methoxyphenyl)-N-((2R,3R,4S,5R,6R)-3,4,5-trimethoxy-6-(methoxymethyl)tetrahydro-2H-pyran-2-yloxy)picolinamide], the pest or weed control at 70 g/ha in test [1] stood at 95%; in test [2], 100%; in test [3], 100%. The plant injury at 70 g/ha with corn (Zea mays) was 10%.
Turning to `COc1c(Cl)ccc(-c2cc(N)c(Cl)c(C(=O)NOCC3CC3)n2)c1F` [Compound 32, 4-Amino-3-chloro-6-(4-chloro-2-fluoro-3-methoxyphenyl)-N-(cyclopropyl-methoxy)picolinamide], the pest or weed control at 35 g/ha in test [1] (35 g ai/ha), in test [2] and in test [3] was 100% each time. For the same compound, the plant injury at 35 g/ha with corn (Zea mays) stood at 10%.
`COc1c(Cl)ccc(-c2cc(N)c(Cl)c(C(=O)NOCc3nnsc3Cl)n2)c1F` [Compound 47, 4-Amino-3-chloro-N-((5-chloro-1,2,3-thiadiazol-4-yl)methoxy)-6-(4-chloro-2-fluoro-3-methoxyphenyl)picolinamide]: the pest or weed control at 17.5 g/ha in test [2] and in test [3] was 100% each time. The plant injury at 17.5 g/ha in the test on corn (Zea mays) is 35%.
On to `COc1c(Cl)ccc(-c2cc(N)c(Cl)c(C(=O)NOCc3cncs3)n2)c1F` [Compound 36, 4-Amino-3-chloro-6-(4-chloro-2-fluoro-3-methoxyphenyl)-N-(thiazol-5-yl-methoxy)picolinamide], for which the pest or weed control at 35 g/ha in test [2] and in test [3] was 100% each time. The plant injury at 35 g/ha with corn (Zea mays) was determined as 25%.
